In test [1] the test system is Dox-independent human iPSCs. As to the kind of experiment: Signalling dependency of human iPSCs (growth, qRT-PCR). It counts as cell-based. The following applies: KSR-2i-LIF media. The method, then:
In contrast to dependence on Lif/Jak/Stat pathway for pluripotency maintenance in mouse ES cells, conventional human ES cells derived from embryos are cultured in media containing FGF2 (basic FGF), and LIF alone is insufficient to maintain pluripotency (44, 45). […] Conventional human ES cells are resistant to JAK inhibitor (JAKi) but are differentiated in the presence of BMP4. […] Finally, compared to human ES cells, our human iPSCs expressed lower levels of lineage specific genes such as PAX6, GATA6, and SOX17 in KSR-2i-LIF media (FIG. 5H).
Human iPSCs reprogrammed by PB-CAG vectors were cultured in M15 media, with […] human recombinant LIF. Human iPSCs reprogrammed by PB-TRE vectors were maintained in DMEM/F12 with 1×GPS (Invitrogen), 20% Knockout Serum Replacement (Invitrogen), 1×NEAA, 0.1 mM β-mercaptoethanol (β-ME, Sigma) and two inhibitors, CHIR99021 (5 μM) and PD0325901 (1 μM).
RNA was isolated using the RNeasy Mini Kit (Qiagen). The samples were subsequently quantified and treated with gDNA WipeOut. First-strand cDNA was prepared using the QuantiTect Reverse Transcription Kit (Qiagen). For each RT-PCR reaction, we used 50-100 ng of cDNA and primers listed in Supplementary Table 5. Standard PCR conditions were: 94° C. for 30 s, 60° C. for 30 s, 68° C. for 30 s; X 30 cycles. For real-time PCR, we used Taqman Gene Expression Assays. Taqman probes were either purchased from Applied Biosciences (Supplementary Table 6). All quantitative PCR was performed in a […] Fast Real-Time PCR System (Applied Biosciences). Mouse gene expression was determined relative to mouse Gadph using the ΔCt method. Human gene expression was determined relative to human GADPH gene using the ΔCt method.
FIG. 5. Production and characterization of Dox-independent unique human iPSCs. A. Conservation of RAREoct sequence in several mammalian species. B. Reprogramming HDFn cells using the Tet-On six-factor platform. PB-TRE-cDNA transposon, PB-CAG-rtTA and transposase plasmids were transfected into HDFs which were plated onto STO feeders. Dox (2.0 μg/ml) was added 24 hours post transfection. Dox induction usually lasted for 15-20 days. Colonies were picked for expansion at up to 30 days after transfection. Alternatively, immediately once Dox was removed, colonies were trypsinized and re-plated to a new feeder plate for secondary colony formation. C. Typical human iPSC colony morphology and AP staining. Scale bars: 10.0 μm. D. qRT-PCR analysis of pluripotency genes in parental HDFn, human iPSCs and H1 hESC cells. HiPS15-5 and -10 were two Dox-independent iPSC lines generated from one transfection. […] H. Signalling dependency of human iPSCs measured by gene expression (qRT-PCR). […] Quantitative analysis of gene expression was performed relative to GADPH. […]
On the technique in general: Real-time PCR tracks product formation cycle by cycle.

Test [2] has as its system Oct4-IRES-Puro-Egfp MEFs. As to the kind of experiment: Reprogramming of Oct4 reporter MEFs to iPSCs by PB transposition of Yamanaka factors (colony number). It counts as cell-based, mouse. The text has this: To investigate the role of RA signalling in reprogramming, we cloned cDNAs of Oct4, Sox2, Klf4, cMyc, Rara and Rarg into a PB-MSCV vector where expression of the cDNAs was controlled by the MSCV LTR (FIG. 6A). Although exogenous c-Myc is not essential for reprogramming, omission of it reduces reprogramming efficiency and delays the process (23, 30). The individual PB-MSCV-cDNA vectors were co-transfected with a PB transposase plasmid into MEFs (FIG. 1A). PB transposition facilitates efficient integration of the PB transposon into the genome, thus ensuring stable expression of the cDNAs (31).
(§1) ES cell pluripotency requires proper levels of Oct4 (Pou5f1) expression (32), and activation of Oct4 is known to be a crucial event in reprogramming (3). To monitor activation of the endogenous Oct4 locus in reprogramming and to allow unbiased assessment of iPSC quality, we made an Oct4 reporter mouse line where the IRES-Puro-GFP cassette was targeted to the 3′UTR of the Oct4 locus (FIG. 6B). The targeted ES cells were resistant to 2.0 μg/ml Puromycin (Puro) selection. These ES cells were not visibly green under fluorescent microscope but could be distinguished by flow cytometry (FIG. 6C). […] MEFs from the Oct4 reporter mice were thus used in all the MEF reprogramming experiments, and consequently, reprogramming and iPSC quality could be conveniently monitored and assessed by either Puro resistance or GFP expression in iPSCs.
MEFs were prepared from 12.5 d.p.c. Oct4-IRES-Puro-Egfp embryos. To reduce embryo-to-embryo difference, MEFs from several embryos with the same genotype were mixed together for expansion in M10 media. MEFs were passaged once before they were counted, aliquoted and frozen down. Before electroporation, 1×10^6 MEFs were plated onto one gelatinized 15-cm tissue culture plate. When MEFs were 70-80% confluent, they were typsinized and collected for electroporation. M10: knockout DMEM, 10% foetal bovine serum (FBS, Hyclone), 1×GPS, 1× non-essential amino acids (NEAA, Invitrogen).
MEFs transfection was performed using an Amaxa machine (Lonza) according to the manufacturer's protocol (program A-023). After electroporation, MEFs were seeded in M15 plus LIF on STO feeders. For Tet-On experiments, M15 containing Doxycycline (1.0 μg/ml) was added 24 hours after transfection and was changed every other day. iPSC colonies were usually picked at day 7 to day 10 to 96 well plates and cells were expanded according to standard mouse ES cell culture conditions.
Mouse and human iPSC colonies were visualized by alkaline phosphatase staining using the Leukocyte Alkaline Phosphatase kit (Sigma).
FIG. 1. RA signalling in reprogramming. A. Schematic of the reprogramming strategy by piggyBac (PB) transposition. Oct4 reporter MEFs were transfected with the PB-MSCV-cDNA transposon and transposase plasmids, and were plated directly onto STO feeders. ES-like colonies usually appeared in three weeks. M10 and M15 are media for MEFs and ES cells, respectively. B-C. Expressing Rara or Rarg, together with the four Yamanaka factors, drastically promoted reprogramming while inhibiting RA signalling by expressing Rara-DN blocked reprogramming. iPSC colonies were visualized by alkaline phosphatase staining. The reprogramming control was PB-PGK-Neo plus Yamanaka factors. **: P<0.005; ***: P<0.0005. FL: full-length cDNA; DN: dominant-negative form. D. Temporal requirement of RA signalling in reprogramming. Agonist of Rarg (CD437) was added at various stages of reprogramming. […]

Test [3] deals with Oct4 locus. As to the kind of experiment: iPSC quality by Puro resistance and GFP expression from the Oct4 locus (flow cytometry). It counts as cell-based, mouse. The following applies: for quality of iPS cells, measured by FACS: agonist with four Yamanaka factors, up to 8 days. The method, then:
as §1
Expression of the endogenous Oct4 is unstable in iPSCs reprogrammed by the four Yamanaka factors (11). […] Further analysis confirmed their partially reprogrammed status: low levels of endogenous pluripotency gene expression (FIG. 1E), and retention of substantial DNA methylation in the differentially methylated regions (DMRs) in the Nanog and Rex1 promoters (FIG. 1F). On the other hand, a small number of colonies were obtained which were resistant to 2.0 μg/ml Puro, and were similar to ES cells regarding pluripotency gene expression, demethylation at the Nanog and Rex1 promoters, and GFP expression (FIG. 1E-F and FIG. 6E). […] In subsequent experiments, we used resistance to 2.0 μg/ml Puro or GFP expression as surrogate criteria for pluripotency quality of mouse primary iPSCs reprogrammed from Oct4-Puro-GFP MEFs.
Mouse iPSCs growing in 96 well feeder plates were trypsinized and resuspended in M15. iPSCs were spun down at 1,000 rpm for 3 minutes, and the medium was removed by putting the plate upside down on tissue. iPSCs were resuspended in PBS and analyzed by Cytomics FC-500 (Beckman Coulter).
We cloned the four Yamanaka factors into the PB transposons separately where expression of each cDNA was controlled by the LTR of MSCV (PB-MSCV-cDNAs, FIG. 6c). These four transposons and the PB transposase (PBase) plasmid were subsequently transfected into Oct4-IRES-Puro-Egfp MEFs. iPS cell colonies resembling those of regular ES cells appeared in three weeks. Most iPS colonies survived 1.0 or 1.5 μg/ml Puro but very few were able to grow in 2.0 μg/ml Puro. […] RT-PCR and DMR sequencing confirmed that these iPS clones growing in 2.0 μg/mL Puro were more similar to regular ES cells than those clones selected by 1.0 or 1.5 μg/mL Puro in terms of pluripotent gene expression and DNA methylation at promoters of these genes (data not shown). […] We thus used 2.0 μg/mL or higher concentration of Puro in combination of flow cytometry to quantitatively evaluate iPS cell quality in the subsequent experiments.

For test [4], the system named is Rex1-Puro-IRES-Egfp knock-in mouse ES cell line. As to the kind of experiment: RA induced ES cell differentiation, Puro selection. Format: cell-based. The conditions noted are these: all-trans retinoic acid; antagonist added or cDNA over-expressed. An excerpt: Insertion of this transposon into the mouse genome can either up-regulate genes near the insertion sites or disrupt them, depending on the structure of the insertion allele. To efficiently eliminate differentiated ES cells in the culture, we targeted the Puro-IRES-Egfp cassette to the Rex1 locus (FIG. 12b). Consequently, undifferentiated ES cells would be resistant to Puromycin (Puro) selection and GFP^+ in flow cytometry, while differentiated cells would be killed by Puro selection and become GFP^− due to rapid lose of Rex1 expression upon differentiation.
A library of mutant ES cells were differentiated with 1.0 μM all-trans retinoic acid (RA) for 4 days and subsequently selected with Puromycin (FIG. 12c). Several Pura^r ES cell clones were identified from independent mutant ES cell pools. Splinkrette PCR analysis identified PB integration sites in genes encoding Rarg, Pparg and Gclc. For Pparg, PB insertion caused over-expression of the entire protein coding sequences. In contrast, Rarg locus had four independent PB insertions, all found in intron 9 (the last intron) (FIG. 12d). These PB insertions caused truncation of Rarg which misses amino acids encoded by exon 10. […] This truncated Rarg likely functioned as a dominant negative form of wild type Rarg (Rarg-DN).
FIG. 12. […]

“Also recorded” adds a separate entry of the source.

As to `Cc1c[nH]c(/C=C2\C(=O)Nc3ccccc32)c1CCC(=O)O` [SU54021], the “growth and pluripotency gene expression of human iPSCs in the presence of the agent” value (from here on “growth and pluripotency gene expression”) in test [1] was “grew well and kept pluripotency gene expression”; in test [1] (listed as FGFRi), “Robust expression of pluripotency genes”.

On to `O=C(O)c1ccc2cc(-c3ccc(O)c(C45CC6CC(CC(C6)C4)C5)c3)ccc2c1` [CD437], for which the “iPS cell colony number” value in test [2] (100 nM for up to eight day, with four Yamanaka factors) is on record as “greatly increased”. In test [2] (added to culture media at recommended concentration for 4 or 8 days, with four Yamanaka factors), the “reprogramming of MEFs to iPSCs” value is reported as “drastically increased”. Besides, the iPS colony number entry in test [2] (treatment beyond 8 days (day 1-12)) is given as “substantially reduced”. Moreover, the reprogramming efficiency entry in test [2] (treatment beyond 8 days after transfection) is recorded as “reduced reprogramming efficiency”. In addition, the “GFP expression from the Oct4 locus in colonies (iPSC quality)” value in test [3] (CD437 day 1-4) was “expressed GFP; also recorded: Improvement of iPSC quality”. In addition, the “survival of Puro selection” value in test [3] (CD437 day 1-4, 2.0 μg/ml Puro) is “survived 2.0 μg/ml Puro selection”. Besides, the “quality of iPS cells, measured by FACS” value in test [3] is “significantly improved”.

Turning to `CC1(C)CCC(C)(C)c2cc(C(=O)Nc3ccc(C(=O)O)cc3)ccc21` [Am580], the reprogramming efficiency entry in test [2] (administrated for 8 days, with four Yamanaka factors) is “improved reprogramming efficiency”. Moreover, in test [3], the “quality of iPS cells, measured by FACS” value was “little effect”.

For `CC(C)(C)c1nc2c3cc[nH]c(=O)c3c3cc(F)ccc3c2[nH]1` [JAK inhibitor], the “growth and pluripotency gene expression” value in test [1] was “lost expression of OCT4 and NANOG and were rapidly differentiated”.

BMP4: BMP4 added to human iPSC culture: the “growth and pluripotency gene expression” value in test [1] is recorded as “proliferated well”.

In the case of `COCCOCOc1cc2ccc(-c3ccc(C(=O)O)cc3)cc2cc1C12CC3CC(CC(C3)C1)C2` [CD2665], the “quality of partially reprogrammed clones” value in test [3] (10 μM, two independent partially reprogrammed clones) is reported as “significantly improved”. Besides, the “effect on quality of partially reprogrammed clones” value in test [3] (10 μM, used together with 5-Aza) was “more obvious”. Also, in test [3] (after treatment for 4 days, with or without 5-Aza), the “GFP status of partially reprogrammed clones” value was “largely GFP negative”. For the same molecule, the “ES cell differentiation induced by RA” value in test [4] was “block ES cell differentiation”.

In the case of `CCCCCCCOc1cc2c(cc1/C(C)=C/c1ccc(C(=O)O)cc1)C(C)(C)CCS2(=O)=O` [Ro-41-5253], the “ES cell differentiation induced by RA” value in test [4] is “block ES cell differentiation”.

For the origin of these results see patent US9512407B2, “Cells and methods for obtaining them” (GENOME RESEARCH LIMITED, priority 2009, dated 2016).
